Experimental data published in paper PMC12090182, “Repurposing of the RIPK1-Selective Benzo[1,4]oxazepin-4-one Scaffold for the Development of a Type III LIMK1/2 Inhibitor” (ACS Chemical Biology, 2025).
Where two headings read alike, the source gives them in different places.

Columns and labels:
Assay in all cases: biochemical
Assay type in all cases: binding
[1] = molecular target: 468 kinases including some pathogenic mutants (Homo sapiens, UniProt P21860); conditions: ERBB3 (Entrez ERBB3), 100 nM; read-out: Percent Control
[2] = molecular target: 468 kinases including some pathogenic mutants (Homo sapiens, UniProt Q9NRH2); conditions: SNRK (Entrez SNRK), 1000 nM; read-out: Percent Control
[3] = molecular target: 468 kinases including some pathogenic mutants (Homo sapiens, UniProt Q13163); conditions: MEK5 (Entrez MAP2K5), 100 nM; read-out: Percent Control
[4] = molecular target: 468 kinases including some pathogenic mutants (Homo sapiens, UniProt Q9P1W9); conditions: PIM2 (Entrez PIM2), 100 nM; read-out: Percent Control
[5] = molecular target: 468 kinases including some pathogenic mutants (Homo sapiens, UniProt Q6ZWH5); conditions: NEK10 (Entrez NEK10), 100 nM; read-out: Percent Control
[6] = molecular target: 468 kinases including some pathogenic mutants (Homo sapiens, UniProt Q05655); conditions: PRKCD (Entrez PRKCD), 1000 nM; read-out: Percent Control
[7] = molecular target: 468 kinases including some pathogenic mutants (Homo sapiens, UniProt Q16816); conditions: PHKG1 (Entrez PHKG1), 100 nM; read-out: Percent Control
[8] = molecular target: 468 kinases including some pathogenic mutants (Homo sapiens, UniProt P48736); conditions: PIK3CG (Entrez PIK3CG), 100 nM; read-out: Percent Control
[9] = molecular target: 468 kinases including some pathogenic mutants (Homo sapiens, UniProt P49137); conditions: MAPKAPK2 (Entrez MAPKAPK2), 100 nM; read-out: Percent Control
[10] = molecular target: 468 kinases including some pathogenic mutants (Homo sapiens, UniProt P36896); conditions: ACVR1B (Entrez ACVR1B), 100 nM; read-out: Percent Control
[11] = molecular target: 468 kinases including some pathogenic mutants (Homo sapiens, UniProt P14616); conditions: INSRR (Entrez INSRR), 100 nM; read-out: Percent Control
[12] = molecular target: 468 kinases including some pathogenic mutants (Homo sapiens, UniProt P17948); conditions: FLT1 (Entrez FLT1), 100 nM; read-out: Percent Control
[13] = molecular target: 468 kinases including some pathogenic mutants (Homo sapiens, UniProt O95747); conditions: OSR1 (Entrez OXSR1), 100 nM; read-out: Percent Control
[14] = molecular target: 468 kinases including some pathogenic mutants (Homo sapiens, UniProt Q15831); conditions: LKB1 (Entrez STK11), 100 nM; read-out: Percent Control
[15] = molecular target: 468 kinases including some pathogenic mutants (Homo sapiens, UniProt Q13153); conditions: PAK1 (Entrez PAK1), 100 nM; read-out: Percent Control
[16] = molecular target: 468 kinases including some pathogenic mutants (Homo sapiens, UniProt P41240); conditions: CSK (Entrez CSK), 100 nM; read-out: Percent Control
[17] = molecular target: 468 kinases including some pathogenic mutants (Homo sapiens, UniProt P54756); conditions: EPHA5 (Entrez EPHA5), 100 nM; read-out: Percent Control
[18] = molecular target: 468 kinases including some pathogenic mutants (Homo sapiens, UniProt P42338); conditions: PIK3CB (Entrez PIK3CB), 100 nM; read-out: Percent Control
[19] = molecular target: 468 kinases including some pathogenic mutants (Homo sapiens, UniProt Q14164); conditions: IKK-epsilon (Entrez IKBKE), 100 nM; read-out: Percent Control
[20] = molecular target: 468 kinases including some pathogenic mutants (Homo sapiens, UniProt P11802); conditions: 100 nM, read-out: Percent Control
[21] = molecular target: 468 kinases including some pathogenic mutants (Homo sapiens, UniProt Q52WX2); conditions: SBK1 (Entrez SBK1), 1000 nM; read-out: Percent Control
[22] = molecular target: 468 kinases including some pathogenic mutants (Homo sapiens, UniProt Q96NX5); conditions: CAMK1G (Entrez CAMK1G), 100 nM; read-out: Percent Control
[23] = molecular target: 468 kinases including some pathogenic mutants (Homo sapiens, UniProt P37173); conditions: TGFBR2 (Entrez TGFBR2), 1000 nM; read-out: Percent Control
[24] = molecular target: 468 kinases including some pathogenic mutants (Homo sapiens, UniProt Q9H2X6); conditions: HIPK2 (Entrez HIPK2), 100 nM; read-out: Percent Control
[25] = molecular target: 468 kinases including some pathogenic mutants (Homo sapiens, UniProt Q9Y6R4); conditions: MAP3K4 (Entrez MAP3K4), 100 nM; read-out: Percent Control
[26] = molecular target: 468 kinases including some pathogenic mutants (Homo sapiens, UniProt P21709); conditions: EPHA1 (Entrez EPHA1), 100 nM; read-out: Percent Control
[27] = molecular target: 468 kinases including some pathogenic mutants (Homo sapiens, UniProt Q05397); conditions: FAK (Entrez PTK2), 100 nM; read-out: Percent Control
[28] = molecular target: 468 kinases including some pathogenic mutants (Homo sapiens, UniProt P00533, G719C); conditions: read-out: Percent Control

468 kinases including some pathogenic mutants (Homo sapiens, UniProt P11802), sequence (P11802 whole entry, change not shown): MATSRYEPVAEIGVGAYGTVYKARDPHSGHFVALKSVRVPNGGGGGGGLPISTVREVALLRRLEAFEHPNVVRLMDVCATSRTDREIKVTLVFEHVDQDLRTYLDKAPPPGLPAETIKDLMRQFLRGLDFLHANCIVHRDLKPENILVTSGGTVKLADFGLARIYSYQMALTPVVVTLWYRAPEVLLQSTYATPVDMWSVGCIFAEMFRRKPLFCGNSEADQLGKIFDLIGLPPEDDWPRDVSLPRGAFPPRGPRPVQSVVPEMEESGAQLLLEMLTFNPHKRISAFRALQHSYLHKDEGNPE
468 kinases including some pathogenic mutants (Homo sapiens, UniProt Q05397), sequence (Q05397 whole entry, stated change not applied): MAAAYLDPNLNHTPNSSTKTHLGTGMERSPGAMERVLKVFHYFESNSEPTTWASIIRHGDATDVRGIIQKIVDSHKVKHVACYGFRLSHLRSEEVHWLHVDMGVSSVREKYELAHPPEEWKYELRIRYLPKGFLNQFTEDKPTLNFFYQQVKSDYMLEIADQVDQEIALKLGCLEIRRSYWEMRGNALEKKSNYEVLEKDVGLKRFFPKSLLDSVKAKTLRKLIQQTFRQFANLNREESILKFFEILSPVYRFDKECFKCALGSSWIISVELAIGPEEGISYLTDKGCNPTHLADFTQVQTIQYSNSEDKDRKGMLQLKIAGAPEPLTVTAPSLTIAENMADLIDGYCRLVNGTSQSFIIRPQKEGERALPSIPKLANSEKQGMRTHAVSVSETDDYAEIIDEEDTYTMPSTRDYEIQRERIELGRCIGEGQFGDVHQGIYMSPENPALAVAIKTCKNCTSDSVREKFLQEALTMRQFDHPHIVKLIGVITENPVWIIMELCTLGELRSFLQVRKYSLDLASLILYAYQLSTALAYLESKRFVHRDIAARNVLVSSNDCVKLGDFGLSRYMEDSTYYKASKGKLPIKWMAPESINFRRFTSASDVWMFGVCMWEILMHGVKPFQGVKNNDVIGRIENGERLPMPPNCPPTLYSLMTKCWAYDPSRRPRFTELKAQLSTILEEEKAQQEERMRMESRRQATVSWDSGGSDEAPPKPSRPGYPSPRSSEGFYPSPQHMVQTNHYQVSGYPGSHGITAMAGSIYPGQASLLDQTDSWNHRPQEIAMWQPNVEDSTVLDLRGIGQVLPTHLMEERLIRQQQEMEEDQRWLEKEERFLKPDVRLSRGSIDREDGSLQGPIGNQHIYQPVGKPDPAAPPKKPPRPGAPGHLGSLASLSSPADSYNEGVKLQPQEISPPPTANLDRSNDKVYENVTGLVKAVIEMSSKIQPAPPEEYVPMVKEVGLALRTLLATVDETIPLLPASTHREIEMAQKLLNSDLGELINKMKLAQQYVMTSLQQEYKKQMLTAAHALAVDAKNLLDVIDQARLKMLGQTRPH
468 kinases including some pathogenic mutants (Homo sapiens, UniProt P17948), sequence (P17948 27-1338, change not shown): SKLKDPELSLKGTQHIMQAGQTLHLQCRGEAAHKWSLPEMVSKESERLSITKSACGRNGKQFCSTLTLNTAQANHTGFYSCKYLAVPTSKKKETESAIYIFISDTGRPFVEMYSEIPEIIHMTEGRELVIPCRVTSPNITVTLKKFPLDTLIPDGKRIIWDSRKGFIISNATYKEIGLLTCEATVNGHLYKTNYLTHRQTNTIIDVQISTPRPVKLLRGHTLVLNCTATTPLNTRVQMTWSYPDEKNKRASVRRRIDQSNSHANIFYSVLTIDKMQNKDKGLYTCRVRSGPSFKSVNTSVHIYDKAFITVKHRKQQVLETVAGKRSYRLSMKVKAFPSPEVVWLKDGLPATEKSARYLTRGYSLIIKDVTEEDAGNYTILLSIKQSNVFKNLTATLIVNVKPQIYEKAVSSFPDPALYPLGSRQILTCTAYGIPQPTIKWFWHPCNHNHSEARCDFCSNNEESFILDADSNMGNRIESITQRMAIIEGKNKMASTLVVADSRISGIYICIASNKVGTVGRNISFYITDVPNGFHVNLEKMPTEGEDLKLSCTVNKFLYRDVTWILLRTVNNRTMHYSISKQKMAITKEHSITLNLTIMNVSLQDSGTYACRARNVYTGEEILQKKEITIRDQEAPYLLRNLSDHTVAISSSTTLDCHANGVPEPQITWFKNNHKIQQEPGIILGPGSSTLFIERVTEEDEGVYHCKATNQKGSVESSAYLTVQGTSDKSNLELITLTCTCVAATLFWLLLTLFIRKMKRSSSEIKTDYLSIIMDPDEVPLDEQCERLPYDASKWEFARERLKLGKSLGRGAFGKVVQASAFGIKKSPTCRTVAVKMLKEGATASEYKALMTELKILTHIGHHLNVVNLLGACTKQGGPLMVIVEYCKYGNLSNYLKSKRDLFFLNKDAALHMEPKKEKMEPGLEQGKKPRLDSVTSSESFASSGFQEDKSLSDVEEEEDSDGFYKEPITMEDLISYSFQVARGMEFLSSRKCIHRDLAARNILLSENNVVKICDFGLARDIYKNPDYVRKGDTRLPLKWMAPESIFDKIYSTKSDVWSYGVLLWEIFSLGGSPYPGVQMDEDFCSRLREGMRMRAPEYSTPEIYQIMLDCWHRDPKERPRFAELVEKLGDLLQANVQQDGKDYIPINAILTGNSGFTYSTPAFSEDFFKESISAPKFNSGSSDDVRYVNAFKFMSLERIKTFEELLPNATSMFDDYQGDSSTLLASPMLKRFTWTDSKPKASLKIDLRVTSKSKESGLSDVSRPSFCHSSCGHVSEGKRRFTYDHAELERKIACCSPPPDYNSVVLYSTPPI
468 kinases including some pathogenic mutants (Homo sapiens, UniProt Q9H2X6), sequence (Q9H2X6 whole entry, change not shown): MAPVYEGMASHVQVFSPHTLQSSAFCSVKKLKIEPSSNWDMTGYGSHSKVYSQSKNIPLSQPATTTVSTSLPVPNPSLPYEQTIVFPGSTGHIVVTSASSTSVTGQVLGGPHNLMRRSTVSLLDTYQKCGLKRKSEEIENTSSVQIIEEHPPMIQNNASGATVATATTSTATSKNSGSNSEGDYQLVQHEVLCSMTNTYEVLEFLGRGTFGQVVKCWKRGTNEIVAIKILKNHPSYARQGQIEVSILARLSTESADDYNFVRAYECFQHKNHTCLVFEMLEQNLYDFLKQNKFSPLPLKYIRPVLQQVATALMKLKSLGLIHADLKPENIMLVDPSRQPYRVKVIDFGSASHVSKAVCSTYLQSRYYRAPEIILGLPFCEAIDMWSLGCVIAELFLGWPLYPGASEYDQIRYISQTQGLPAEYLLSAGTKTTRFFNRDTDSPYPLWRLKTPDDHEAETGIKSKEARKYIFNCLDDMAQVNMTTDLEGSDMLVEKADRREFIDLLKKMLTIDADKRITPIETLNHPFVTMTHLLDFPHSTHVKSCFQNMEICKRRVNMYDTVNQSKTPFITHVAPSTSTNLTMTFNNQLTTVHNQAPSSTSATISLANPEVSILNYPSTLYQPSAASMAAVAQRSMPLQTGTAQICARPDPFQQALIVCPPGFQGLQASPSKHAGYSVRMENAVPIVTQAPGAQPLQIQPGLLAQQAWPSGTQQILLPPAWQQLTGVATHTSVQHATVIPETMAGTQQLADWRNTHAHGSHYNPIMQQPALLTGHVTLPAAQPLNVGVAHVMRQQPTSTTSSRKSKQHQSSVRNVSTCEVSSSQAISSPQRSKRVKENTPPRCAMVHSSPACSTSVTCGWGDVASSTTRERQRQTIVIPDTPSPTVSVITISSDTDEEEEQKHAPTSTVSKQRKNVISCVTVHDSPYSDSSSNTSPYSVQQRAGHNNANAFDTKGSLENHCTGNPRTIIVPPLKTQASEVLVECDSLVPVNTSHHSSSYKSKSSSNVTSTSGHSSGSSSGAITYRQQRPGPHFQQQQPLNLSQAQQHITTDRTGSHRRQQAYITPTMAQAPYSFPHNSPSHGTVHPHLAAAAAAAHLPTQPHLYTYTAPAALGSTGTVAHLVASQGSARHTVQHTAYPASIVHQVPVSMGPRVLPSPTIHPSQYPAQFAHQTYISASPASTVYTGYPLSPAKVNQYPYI
468 kinases including some pathogenic mutants (Homo sapiens, UniProt P21709), sequence (P21709 26-976, change not shown): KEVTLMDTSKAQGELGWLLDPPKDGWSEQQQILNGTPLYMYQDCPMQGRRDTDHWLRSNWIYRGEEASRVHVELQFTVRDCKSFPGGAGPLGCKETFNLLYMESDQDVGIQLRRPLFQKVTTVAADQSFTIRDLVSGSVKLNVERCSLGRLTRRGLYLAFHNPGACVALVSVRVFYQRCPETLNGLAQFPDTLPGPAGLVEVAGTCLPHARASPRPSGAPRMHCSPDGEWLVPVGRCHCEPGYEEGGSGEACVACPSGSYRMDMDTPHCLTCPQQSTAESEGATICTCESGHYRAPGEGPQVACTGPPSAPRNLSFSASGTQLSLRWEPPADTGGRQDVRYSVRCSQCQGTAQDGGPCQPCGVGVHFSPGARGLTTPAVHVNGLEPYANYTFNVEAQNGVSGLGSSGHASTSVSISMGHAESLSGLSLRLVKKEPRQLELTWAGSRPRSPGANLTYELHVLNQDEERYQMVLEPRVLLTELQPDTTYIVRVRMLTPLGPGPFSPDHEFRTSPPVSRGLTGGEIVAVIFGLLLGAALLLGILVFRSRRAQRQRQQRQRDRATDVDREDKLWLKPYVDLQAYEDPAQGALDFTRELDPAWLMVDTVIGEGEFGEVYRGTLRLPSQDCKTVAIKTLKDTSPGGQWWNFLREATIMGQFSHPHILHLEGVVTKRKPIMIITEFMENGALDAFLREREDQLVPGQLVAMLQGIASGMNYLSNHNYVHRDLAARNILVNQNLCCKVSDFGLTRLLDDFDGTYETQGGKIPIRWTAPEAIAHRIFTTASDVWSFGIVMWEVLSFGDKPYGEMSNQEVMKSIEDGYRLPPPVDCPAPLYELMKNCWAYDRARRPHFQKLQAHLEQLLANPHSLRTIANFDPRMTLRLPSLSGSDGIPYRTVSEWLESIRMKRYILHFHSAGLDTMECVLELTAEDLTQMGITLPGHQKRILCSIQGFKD

For `CN1C(=O)[C@@H](N2CCc3c(nn(Cc4ccccc4)c3C(N)=O)C2=O)COc2cc(Cl)ccc21` [Compound 10, (S)-2-benzyl-6-(8-chloro-5-methyl-4-oxo-2,3,4,5-tetrahydrobenzo[b][1,4]oxazepin-3-yl)-7-oxo-4,5,6,7-tetrahydro-2H-pyrazolo[3,4-c]pyridine-3-carboxamide], the remaining activity at 0.1 µM [1] was 84%, the remaining activity at 1 µM [2] was 100% and the remaining activity at 0.1 µM [3] was 89%. It also gave a remaining activity at 0.1 µM [4] of 83%, a remaining activity at 0.1 µM [5] of 89% and a remaining activity at 1 µM [6] of 100%. The remaining activity at 0.1 µM [7] was 94%, the remaining activity at 0.1 µM [8] was 65% and the remaining activity at 0.1 µM [9] was 53%. For the same compound, the remaining activity at 0.1 µM [10] was 89%, the remaining activity at 0.1 µM [11] was 68% and the remaining activity at 0.1 µM [12] was 78%. The remaining activity at 0.1 µM [13] was 100%, the remaining activity at 0.1 µM [14] was 97% and the remaining activity at 0.1 µM [15] was 88%. For the same compound, the remaining activity at 0.1 µM [16] was 83%, the remaining activity at 0.1 µM [17] was 74% and the remaining activity at 0.1 µM [18] was 100%. It also gave a remaining activity at 0.1 µM [19] of 61%, a remaining activity at 0.1 µM ([20]; CDK4 (Entrez CDK4)) of 94% and a remaining activity at 0.1 µM ([20]; CDK4-cyclinD1 (Entrez CDK4)) of 77%. The remaining activity at 0.1 µM ([20]; CDK4-cyclinD3 (Entrez CDK4)) was 92%, the remaining activity at 1 µM [21] was 100% and the remaining activity at 0.1 µM [22] was 72%. It also gave a remaining activity at 1 µM [23] of 100%, a remaining activity at 0.1 µM [24] of 78% and a remaining activity at 0.1 µM [25] of 79%. For the same compound, the remaining activity at 0.1 µM [26] was 91%, the remaining activity at 0.1 µM [27] was 82% and the remaining activity at 0.1 µM [28] was 100%.
